Experimental data: US6087334A, “Anti-diabetic peptides” (Amylin Pharmaceuticals, Inc., priority 1998, dated 2000)
Where a SMILES comes first, the peptide text is derived from it. Bridges are numbered along the chain shown (N, C = ends).

test system: gastric emptying in conscious rats; conditions: rat, in vivo
Description: Peptide compounds of the present invention may be evaluated for amylin agonist activity using the methods of measuring the rate of gastric emptying disclosed in, for example, Young et al., Diabetologia, 38(6):642-648 (1995). In a phenol red method, which is described in Example D below, conscious rats receive by gavage an a caloric gel containing methyl cellulose and a phenol red indicator. Twenty minutes after gavage, animals are anesthetized using halothane, the stomach exposed and clamped at the pyloric and lower esophageal sphincters, removed and opened into an alkaline solution. Stomach content may be derived from the intensity of the phenol red in the alkaline solution, measured by absorbance at a wavelength of 560 nm. In a tritiated glucose method, conscious rats are gavaged with tritiated glucose in water. The rats are gently restrained by the tail, the tip of which is anesthetized using lidocaine. Tritium in the plasma separated from tail blood is collected at various timepoints and detected in a beta counter. Test compounds are normally administered about one minute before gavage.
Phenol Red Gastric Emptying Assay:
Gastric emptying was measured using a modification (Plourde et al., Life Sci. 53:857-862 (1993)) of the original method of Scarpignato et al. (Arch. Int. Pharmacodyn. Ther. 246:286-295 (1980)). Conscious rats received by gavage. 1.5 mL of an a caloric gel containing 1.5% methyl cellulose (M-0262, Sigma Chemical Co., St. Louis, Mo.) and 0.05% phenol red indicator. Twenty minutes after gavage, rats were anesthetized using 5% halothane, the stomach exposed and clamped at the pyloric and lower esophageal sphincters using artery forceps, removed and opened into an alkaline solution which was made up to a fixed volume. Stomach content was derived from the intensity of the phenol red in the alkaline solution, measured by absorbance at a wavelength of 560 nm. […] In other experiments, particulate gastric contents were centrifuged to clear the solution for absorbance measurements. Where the diluted gastric contents remained turbid, the spectroscopic absorbance due to phenol red was derived as the difference between that present in alkaline versus acidified dilutent.
In separate experiments on 7 rats, the stomach and small intestine were both excised and opened into an alkaline solution. […] Percent gastric emptying contents remaining=(absorbance at 20 min)/(absorbance at 0 min). For those compounds for which ED50 data is presented, dose response curves for gastric emptying were fitted to a 4-parameter logistic model using a least-squares iterative routine (ALLFIT, v2.7, NIH, Bethesda, Md.) to derive ED50 s. Because ED50 is log-normally distributed, it is expressed ± standard error of the logarithm. Pairwise comparisons were performed using one-way analysis of variance and the Student-Newman-Keuls multiple comparisons test (Instat v2.0, GraphPad Software, San Diego, Calif.) using P<0.05 as the level of significance.
As a reference point for dose response studies, rat amylin (Bachem, Torrance, Calif.) dissolved in 0.15M saline, was administered as a 0.1 mL subcutaneous bolus in doses of 0, 0.01, 0.1, 1, 10 or 100 μg 5 minutes before gavage in Harlan Sprague Dawley (non-diabetic) rats fasted 20 hours and diabetic BB rats fasted 6 hours.

SMILES	Example D ED50 [µg]
CC(C)C[C@H](NC(=O)[C@H](CCCNC(=N)N)NC(=O)[C@H](C)NC(=O)[C@@H](NC(=O)[C@H](C)NC(=O)[C@@H]1CSSC[C@H](NC(=O)[C@@H](N)CCCCN)C(=O)N[C@@H](CC(N)=O)C(=O)N[C@@H]([C@@H](C)O)C(=O)N[C@@H](C)C(=O)N[C@@H]([C@@H](C)O)C(=O)N1)[C@@H](C)O)C(=O)N[C@@H](C)C(=O)N[C@@H](C)C(=O)N[C@@H](Cc1ccccc1)C(=O)N[C@@H](CC(C)C)C(=O)N[C@@H](C)C(=O)N[C@@H](CCCNC(=N)N)C(=O)N[C@@H](CO)C(=O)N[C@@H](CO)C(=O)NCC(=O)N[C@@H](Cc1ccc(O)cc1)C(N)=O [Example 1] (H-KCNTATCATARLAAFLARSSGY-NH2; disulfide 2-7)	0.26
CC(C)C[C@H](NC(=O)[C@H](CCCNC(=N)N)NC(=O)[C@H](C)NC(=O)[C@@H](NC(=O)[C@H](C)NC(=O)[C@@H]1CSSC[C@H](N)C(=O)N[C@@H](CC(N)=O)C(=O)N[C@@H]([C@@H](C)O)C(=O)N[C@@H](C)C(=O)N[C@@H]([C@@H](C)O)C(=O)N1)[C@@H](C)O)C(=O)N[C@@H](C)C(=O)N[C@@H](C)C(=O)N[C@@H](Cc1ccccc1)C(=O)N[C@@H](CC(C)C)C(=O)N[C@@H](C)C(=O)N[C@@H](CCCNC(=N)N)C(=O)N[C@@H](CO)C(N)=O [Example 3] (H-CNTATCATARLAAFLARS-NH2; disulfide 1-6)	0.45
CC(C)C[C@H](NC(=O)[C@H](CCCNC(=N)N)NC(=O)[C@H](C)NC(=O)[C@@H](NC(=O)[C@H](C)NC(=O)[C@@H]1CSSC[C@H](NC(=O)[C@@H](N)CCCCN)C(=O)N[C@@H](CC(N)=O)C(=O)N[C@@H]([C@@H](C)O)C(=O)N[C@@H](C)C(=O)N[C@@H]([C@@H](C)O)C(=O)N1)[C@@H](C)O)C(=O)N[C@@H](C)C(=O)N[C@@H](CC(N)=O)C(=O)N[C@@H](Cc1ccccc1)C(=O)N[C@@H](CC(C)C)C(=O)N[C@H](C(=O)N[C@@H](CCCNC(=N)N)C(=O)N[C@@H](CO)C(=O)N[C@@H](CO)C(=O)NCC(=O)N[C@@H](Cc1ccc(O)cc1)C(N)=O)C(C)C [Example 5] (H-KCNTATCATARLANFLVRSSGY-NH2; disulfide 2-7)	9.3
CC(C)C[C@H](NC(=O)[C@H](CCCNC(=N)N)NC(=O)[C@H](C)NC(=O)[C@@H](NC(=O)[C@H](C)NC(=O)[C@H](C)NC(=O)[C@@H](NC(=O)[C@H](CO)NC(=O)[C@@H](N)CC(C)C)[C@@H](C)O)[C@@H](C)O)C(=O)N[C@@H](C)C(=O)N[C@@H](C)C(=O)N[C@@H](Cc1ccccc1)C(=O)N[C@@H](CC(C)C)C(=O)N[C@@H](C)C(=O)N[C@@H](CCCNC(=N)N)C(=O)N[C@@H](CO)C(N)=O [Example 6] (H-LSTAATARLAAFLARS-NH2)	1.34
